Like-named read-outs stand apart in the source and are kept apart here. Where no end group is shown, it is not given here.
How the values were obtained:
[1] = molecular target: T1, mouse B2 bradykinin receptor (Mus musculus, UniProt P32299); assay: Effect of guanine nucleotides on binding of BK to membranes (mouse B2 receptor, COS-7); settings: increasing concentrations of guanine nucleotide
T1 construct: The PCR product begins 99 bp upstream of the initiator methionine codon and ends 49 bp downstream of the stop codon; expressed in transfected cells; host or cells: COS-7 (transient), pcDNAI-Neo
T1 sequence (P32299 1-366 isoform P32299-2): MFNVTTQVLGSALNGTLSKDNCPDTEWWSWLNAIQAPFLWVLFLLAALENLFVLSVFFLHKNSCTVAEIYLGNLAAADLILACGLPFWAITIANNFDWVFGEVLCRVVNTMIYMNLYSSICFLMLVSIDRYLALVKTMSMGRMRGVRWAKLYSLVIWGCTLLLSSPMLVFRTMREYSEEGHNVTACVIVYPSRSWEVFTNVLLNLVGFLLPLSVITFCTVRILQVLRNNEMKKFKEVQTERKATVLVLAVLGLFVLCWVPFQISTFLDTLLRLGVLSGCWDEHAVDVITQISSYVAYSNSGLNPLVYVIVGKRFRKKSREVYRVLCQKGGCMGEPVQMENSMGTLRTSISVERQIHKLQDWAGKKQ
Description: The binding of BK to membranes was reduced by increasing concentrations of GTP, guanosine 5'-O-(3-thiotriphosphate) or 5'guanylylimidodiphosphate.

B1 receptor = settings: cited from earlier work
[2] = molecular target: T2, human B2 bradykinin receptor (Homo sapiens, UniProt P30411); assay: Competition binding against 100 pM [3H]BK at the cloned human B2 receptor (COS-7); settings: for specificity of binding (rank order): COS-7 expressed human B2 receptor; for competition for BK binding: COS-7; for IC50: [3H]BK binding to human B2 receptor
T2 construct: placing the entire B2 clone under the control of the CMV promoter; expressed in transfected cells
T2 sequence (P30411 1-364 isoform P30411-2): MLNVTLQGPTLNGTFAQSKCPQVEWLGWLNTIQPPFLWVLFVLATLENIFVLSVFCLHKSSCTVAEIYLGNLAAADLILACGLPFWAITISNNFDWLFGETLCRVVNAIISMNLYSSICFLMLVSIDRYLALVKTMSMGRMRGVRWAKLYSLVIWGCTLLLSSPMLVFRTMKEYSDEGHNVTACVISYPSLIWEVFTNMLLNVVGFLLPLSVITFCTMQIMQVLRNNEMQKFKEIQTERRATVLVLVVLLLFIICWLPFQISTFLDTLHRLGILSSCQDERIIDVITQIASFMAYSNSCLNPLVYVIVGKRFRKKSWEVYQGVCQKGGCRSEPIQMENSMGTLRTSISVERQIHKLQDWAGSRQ
Experimental: In order to enable expression of the cDNA that encodes for the B2 bradykinin receptor, COS-7 cells were transfected using LIPOFECTIN (BRL, Gaithersburg, Md.) with 50ug/10^7 cells of the B2 receptor cDNA subcloned into the eukaryotic expression vector pcDNA I-Neo (Invitrogen). Cells were then harvested after 72 hours and the membranes containing the expressed receptor protein were prepared by scraping the cells in phosphate buffered saline solution and centrifuging for ten minutes at 500× g. The cell pellet was then resuspended and homogenized with a Polytron in 20 mM N-tris(hydroxymethyl)methyl-2-aminoethane sulfonic acid (TES,pH 6.8 at room temperature) buffer containing 1 mM 1, 10 phenanthroline. The homogenate was then centrifuged for ten minutes at 500 × g. The final membrane pellet was resuspended in assay buffer (TES plus 0.1% protease free bovine serum albumin, 5 uM MK-422 (enalaprilat; Gross et al., 1981) and 140 ug/ml bacitracin using a motor-driven teflon-glass tissue homogenizer. Protein determination was performed by the method of Bradford using bovine IgG as the standard. See Bradford, M.A. Anal. Biochem. 72, 248-254 (1976).
Binding assays were then performed to determine receptor antagonist or agonist interaction. The assays utilized in the instant invention follow the method of Manning et al., J. Pharmacol. Exp. Ther., 237, 504-512 (1986). […] (BRANDEL, Gaithersburg, Md.). The tubes were rinsed two times with 4 ml ice-cold […] and the filter bound radioactivity was quantitated by liquid scintillation counting. […] The competition and saturation experiments were analyzed using the EBDA program of McPherson. See McPherson, G.A. J Pharmacol. Methods 14, 213-218 (1985).

B2 receptor = settings: cited from earlier work
[3] = molecular target: T1, mouse B2 bradykinin receptor; assay: Competition binding using 100 pM [3H]BK at the expressed mouse B2 bradykinin receptor
Experimental: (§1) Binding assays were then performed to determine receptor antagonist or agonist interaction. The assays utilized in the instant invention follow the method of Manning et al., J. Pharmacol. Exp. Ther., 237, 504-512 (1986). [^3 H]BK at various concentrations was incubated for 60 minutes at 25° C. with approximately 50ug membrane protein from COS-7 cells in a volume of 1 ml. The assay was terminated by filtration over Whatman GF/B filters presoaked for 3 hours in 0.1 % polyethyleneimine using a BRANDEL M-24 CELL […] (BRANDEL, Gaithersburg, Md.). The tubes were rinsed two times with 4 ml ice-cold […] and the filter bound radioactivity was quantitated by liquid scintillation counting. Nonspecific binding was determined by performing incubation in the presence of 1 uM BK and generally represents less than 5% of the total binding at 100pM ^3 H]BK. Competition binding experiments, in the presence of 100pM[^3 H]BK, were performed with varying concentrations of the test compound(s). The competition and saturation experiments were analyzed using the EBDA program of McPherson. See McPherson, G.A. J Pharmacol. Methods 14, 213-218 (1985).
To verify the pharmacological properties of the mouse bradykinin B2 receptor the coding sequence of the mouse B2 bradykinin receptor was isolated by PCR (Perkin Elmer/Cetus) using a Techne thermocycler with the template being the EcoR I by Hind III genomic fragment in pSP72 and the 5' primer 5'-[…]-3' (SEQ.ID.NO.:8) and the 3' primer 5'- […]-3' (SEQ.ID.NO.:9). The PCR product was subcloned into the Hind III and Xba I sites of the eukaryotic expression vector pcDNAI-Neo (Invitrogen). The PCR product begins 99 bp upstream of the initiator methionine codon and ends 49 bp downstream of the stop codon. The DNA sequence analysis using Sequenase (US Biochemical) of the subcloned PCR product confirmed that the sequence was identical to that in the original genomic fragment.

rat vas deferens = settings: cited from earlier work; for pre- or postsynaptic BK like responses: rat vas deferens
[4] = test system: murine AB2.1 ES cells, pBS-KO-1 transformants; assay: FIAU counter-selection of pBS-KO-1 ES cell transformants; format: cell-based, mouse; settings: FIAU 0.2 μM
Experimental: Targeted alteration of the bradykinin B2 gene in murine ES cells The gene replacement vector used in the B2 gene disruption experiments was the pBS-KO-1 vector. When this vector recombined with the wild-type B2 allele to generate the B2 knock-out (B2 KO), the entire coding sequence for the B2 receptor was deleted (FIG. 2). The mouse embryonic stem cell line AB2.1 was electroporated with Not I -linearized pBS-KO-1 in multiple experiments. All AB2.1 ES cells were cultured on SNL feeder cells as described (Robertson, in Teratocarcinomas and embryonic stem cells, IRL Press, pp. 71-112 (1987)). Electroporations were performed with 4×10^6 ES cells and 25 μg linearized pBS-KO-l in 0.8 ml electroporation buffer (Specialty Media, Inc.) at 300v, 250 μF using a Bio-Rad Gene Pulser. ES cell transformants were selected with the antibiotic geneticin (Gibco G418: 200 μg/ml active G418), and some transformants were counter-selected with FIAU (Bristol Myers Squibb; 0.2 μM) for enhancement of homologous recombinants. Murine leukemia inhibitory factor (LIF; ESGRO, Gibco BRL, Inc.) was used at 1000 U/ml. […] G418-and FIAU-resistant ES clones were isolated by picking and growing individual colonies, and their genomic DNAs were prepared from AB2.1 5 KO-I-transformants as described (Laird et al., Nucleic Acids Res. 19:4293 (1991).

[5] = molecular target: T1, mouse B2 bradykinin receptor; assay: Saturation binding to whole COS cells transiently expressing the mouse B2 receptor; settings: single high affinity site, read-out: KD for [3H]BK
Experimental: as §1, with “[^3 H]BK at various concentrations was incubated for 60 minutes at 25° C. with approximately 50ug membrane protein from COS-7 cells in a volume of 1 ml.” left out
To verify the pharmacological properties of the mouse bradykinin B2 receptor the coding sequence of the mouse B2 bradykinin receptor was isolated by PCR (Perkin Elmer/Cetus) using a Techne thermocycler with the template being the EcoR I by Hind III genomic fragment in pSP72 and the 5' primer 5'-[…]-3' (SEQ.ID.NO.:8) and the 3' primer 5'- […]-3' (SEQ.ID.NO.:9). […]

[6] = expressed mouse B2 receptor, 100 pM [3H]BK

Compound: Nc1nc2c(ncn2[C@@H]2O[C@H](COP(=O)(O)OP(=O)(O)NP(=O)(O)O)[C@@H](O)[C@H]2O)c(=O)[nH]1 [5'guanylylimidodiphosphate]
- binding of BK to membranes [1]: reduced

Compound: N=C(N)NCCC[C@H](N)C(=O)N1CCC[C@H]1C(=O)N1CCC[C@H]1C(=O)NCC(=O)N[C@@H](Cc1ccccc1)C(=O)N[C@@H](CO)C(=O)N1CCC[C@H]1C(=O)N[C@@H](Cc1ccccc1)C(=O)O [Des-Arg^9 BK]
- potency as B1 receptor agonist relative to BK (B1 receptor): higher potency than BK
- inhibition at 10 µM ([2]; 10 uM, human B2 receptor): 18%
- activity at B2 receptors (B2 receptor): inactive at B2 receptors
- affinity [3, 6]: very low affinity
- IC50 ([3]; expressed mouse B2 receptor, 100 pM [3H]BK, read-out: IC50): 6000 nM
- pre- or postsynaptic BK like responses (rat vas deferens): inactive

Compound: O=c1[nH]c(=O)n([C@@H]2O[C@H](CO)[C@@H](O)[C@@H]2F)cc1I [FIAU, 1-(2-deoxy 2-fluoro-B-D-arabinofluranosyl)-5-iodouracil]
- fewer background pBS-KO-1 transformants [4]: about eleven

Compound: Nc1nc2c(ncn2[C@@H]2O[C@H](COP(=O)(O)OP(=O)(O)OP(=O)(O)O)[C@@H](O)[C@H]2O)c(=O)[nH]1 [GTP, guanosine triphosphate]
- binding of BK to membranes [1]: reduced

Compound: N=C(N)NCCC[C@H](NC(=O)[C@@H](N)CCCCN)C(=O)N1CCC[C@H]1C(=O)N1CCC[C@H]1C(=O)NCC(=O)N[C@@H](Cc1ccccc1)C(=O)N[C@@H](CO)C(=O)N1CCC[C@H]1C(=O)N[C@@H](Cc1ccccc1)C(=O)O [[des-Arg^10]-kallidin]
- IC50 [3]: 25000 nM
- affinity [3, 6]: very low affinity

Compound: Nc1nc2c(ncn2[C@@H]2O[C@H](COP(=O)(O)OP(=O)(O)OP(O)(O)=S)[C@@H](O)[C@H]2O)c(=O)[nH]1 [guanosine 5'-O-(3-thiotriphosphate)]
- binding of BK to membranes [1]: reduced

Compound: N=C(N)NCCC[C@H](NC(=O)[C@H](Cc1ccccc1)NC(=O)[C@@H]1CCCN1C(=O)[C@H](CO)NC(=O)[C@H](Cc1ccccc1)NC(=O)CNC(=O)[C@@H]1CCCN1C(=O)[C@@H]1CCCN1C(=O)[C@H](CCCNC(=N)N)NC(=O)[C@@H](N)CCCCN)C(=O)O [kallidin]
- specificity of binding (rank order) [2]: BK>lys-BK>met-lys-BK
- affinity [3, 6]: high (subnanomolar) affinity

Compound: CSCC[C@H](N)C(=O)N[C@@H](CCCCN)C(=O)N[C@@H](CCCNC(=N)N)C(=O)N1CCC[C@H]1C(=O)N1CCC[C@H]1C(=O)NCC(=O)N[C@@H](Cc1ccccc1)C(=O)N[C@@H](CO)C(=O)N1CCC[C@H]1C(=O)N[C@@H](Cc1ccccc1)C(=O)N[C@@H](CCCNC(=N)N)C(=O)O [met-lys-BK]
- specificity of binding (rank order) [2]: BK>lys-BK>met-lys-BK

Compound: CC[C@H](C)[C@@H]1NC(=O)[C@H](Cc2ccc(O)cc2)NC(=O)[C@@H](N)CSSC[C@@H](C(=O)N2CCC[C@H]2C(=O)N[C@@H](CC(C)C)C(=O)NCC(N)=O)NC(=O)[C@H](CC(N)=O)NC(=O)[C@H](CCC(N)=O)NC1=O [oxytocin]
- competition for BK binding ([2]; human B2 receptor): No competition for BK binding

Compound: D-Arg^0-[Hyp^2,3, Thi^5,8 D-Phe^7 ]BK
- IC50 [2]: 27 nM

Compound: Des-Arg^9,LeuBK: B1 antagonist
- inhibition of BK binding ([2]; 10 uM, human B2 receptor): 11%
- antagonism of BK responses (rat vas deferens; high concentrations, vas deferens): failed to antagonize BK responses
- pre- or postsynaptic BK like responses (rat vas deferens): inactive

Compound: [Thi^5,8,D-Phe^7 ]BK
- IC50 [2]: 180 nM

Compound: [^3 H]BK: radioligand [3H]BK used in binding assays (RPPGFSPFR; also: tritium label; UniProt P01042 381-389, looked up)
- Kd [5]: 0.2 ± 0.03 nM

Compound: angiotensin I: peptide (DRVYIHPFHL; Angiotensin-1; UniProt P01019 25-34, looked up)
- competition for BK binding ([2]; human B2 receptor): No competition for BK binding

Compound: angiotensin II: peptide (DRVYIHPF; Angiotensin-2; UniProt P01019 25-32, looked up)
- competition for BK binding ([2]; human B2 receptor): No competition for BK binding

Compound: endothelin: peptide
- competition for BK binding ([2]; human B2 receptor): No competition for BK binding

Compound: neurotensin
- competition for BK binding ([2]; human B2 receptor): No competition for BK binding

Reference: patent publication US5750826A, “Bradykinin B2 receptor modified transgenic non-human animals” (Merck & Co., Inc., priority 1996, dated 1998)
